Consider 56 compounds from patent US9440952B2, “Compounds inhibiting leucine-rich repeat kinase enzyme activity” (Merck Sharp & Dohme Corp., priority 2013, dated 2016).

For one assay, the target named is T1, LRRK2(G2019S mutation, GST-LRRK2(amino acids 970-2527)) (Homo sapiens, UniProt Q5S007, G2019S).
T1 construct: GST-LRRK2(amino acids 970-2527); GST (N); purchased Life Technologies Corporation
T1 sequence (Q5S007 970-2527 G2019S): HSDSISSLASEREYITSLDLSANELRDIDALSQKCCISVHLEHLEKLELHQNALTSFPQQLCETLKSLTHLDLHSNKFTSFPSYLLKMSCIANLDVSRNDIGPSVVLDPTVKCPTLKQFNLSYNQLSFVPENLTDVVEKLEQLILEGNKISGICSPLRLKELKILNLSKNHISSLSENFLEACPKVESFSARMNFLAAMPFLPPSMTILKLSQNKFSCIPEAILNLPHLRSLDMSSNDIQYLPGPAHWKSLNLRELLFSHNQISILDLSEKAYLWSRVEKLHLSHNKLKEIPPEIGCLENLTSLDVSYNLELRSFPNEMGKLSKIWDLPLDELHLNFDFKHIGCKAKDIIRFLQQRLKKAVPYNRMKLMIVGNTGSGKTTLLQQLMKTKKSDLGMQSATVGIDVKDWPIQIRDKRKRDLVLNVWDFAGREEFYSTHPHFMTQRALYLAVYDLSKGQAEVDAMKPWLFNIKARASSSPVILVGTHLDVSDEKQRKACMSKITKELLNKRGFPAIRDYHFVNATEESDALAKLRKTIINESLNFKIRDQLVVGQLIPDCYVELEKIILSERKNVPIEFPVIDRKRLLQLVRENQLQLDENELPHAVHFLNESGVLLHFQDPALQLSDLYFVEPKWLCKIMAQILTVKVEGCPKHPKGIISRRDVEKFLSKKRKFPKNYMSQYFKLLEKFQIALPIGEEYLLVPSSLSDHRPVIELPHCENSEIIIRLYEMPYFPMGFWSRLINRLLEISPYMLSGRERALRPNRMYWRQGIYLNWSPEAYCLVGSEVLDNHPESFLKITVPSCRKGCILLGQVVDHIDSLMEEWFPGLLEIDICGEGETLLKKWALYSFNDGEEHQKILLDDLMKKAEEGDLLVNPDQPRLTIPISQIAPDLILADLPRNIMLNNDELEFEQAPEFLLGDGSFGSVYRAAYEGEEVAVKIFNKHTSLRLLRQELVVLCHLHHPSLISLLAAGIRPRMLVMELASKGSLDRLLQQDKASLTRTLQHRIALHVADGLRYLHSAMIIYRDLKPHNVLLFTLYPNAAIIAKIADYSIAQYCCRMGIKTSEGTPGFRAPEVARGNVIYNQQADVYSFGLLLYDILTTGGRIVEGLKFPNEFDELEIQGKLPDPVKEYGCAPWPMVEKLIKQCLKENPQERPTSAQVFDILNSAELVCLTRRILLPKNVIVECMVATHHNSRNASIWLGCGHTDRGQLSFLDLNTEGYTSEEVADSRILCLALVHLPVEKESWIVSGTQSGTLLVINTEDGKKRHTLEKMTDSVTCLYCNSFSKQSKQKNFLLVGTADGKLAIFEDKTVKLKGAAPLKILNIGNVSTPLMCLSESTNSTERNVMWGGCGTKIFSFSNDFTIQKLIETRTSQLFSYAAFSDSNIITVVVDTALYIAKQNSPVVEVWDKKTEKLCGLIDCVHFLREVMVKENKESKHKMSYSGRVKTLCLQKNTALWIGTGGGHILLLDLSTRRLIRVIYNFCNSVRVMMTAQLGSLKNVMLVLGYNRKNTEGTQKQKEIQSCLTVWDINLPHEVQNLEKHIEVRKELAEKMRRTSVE
Kind of assay: LRRK2 Km ATP LanthaScreen Assay. In kind it is biochemical. The following applies: Km ATP LanthaScreen Assay; LRRK2 G2019S; mean IC50 values; Examples 185-215; read-out: LRRK2 IC5). The method, boiled down:
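IC50 values are means of several runs in the Km-ATP LanthaScreen format, analysed by curve fitting of the LanthaScreen read-out.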
Consider `CC(C)Oc1ccc2[nH]nc(-c3ccnc(N4CCCS(=O)(=O)CC4)c3)c2c1` [Example 188], for which the IC50 is 21.4 nM.
Still for that read-out and setting: the value for `CC(C)Oc1ccc2[nH]nc(-c3ccnc(N4CCS(=O)(=O)c5ccccc5C4)c3)c2c1` [Example 186] was 154 nM; that for `CC(C)Oc1ccc2[nH]nc(-c3ccnc(N4CCN(c5ccccc5)C(=O)C4)c3)c2c1` [Example 199] was 8.9 nM; that for `CC(C)Oc1ccc2[nH]nc(-c3ccnc(N4CCC(n5cnnc5)CC4)c3)c2c1` [Example 194] was 4.4 nM.
Same read-out and setting: in the case of `CC(C)Oc1ccc2[nH]nc(-c3ccnc(N4CCCN(c5ncccn5)CC4)c3)c2c1` [Example 209] it was 25.5 nM.

Still in this assay, the particulars now being: Km ATP LanthaScreen Assay; LRRK2 G2019S; mean IC50 values; read-out: LRRK2 IC50.
Regarding `[2H]C1([2H])OC([2H])([2H])C([2H])([2H])N(c2cc(-c3n[nH]c4ccccc34)ccn2)C1([2H])[2H]` [Example 401], the IC50 turned out to be 27 nM.
The same measure, in the same setting: the value for `c1ccc2c(-c3ccnc(N4CCCC4)c3)n[nH]c2c1` [Example 5] was 17 nM; that for `CCOc1ccc2[nH]nc(-c3ccnc(N4CCN(C)C(=O)C4)c3)c2c1` [Example 217] was 4.9 nM; that for `C[C@@H]1C[C@@H](O)CN1c1cc(-c2n[nH]c3ccccc23)ccn1` [Example 51] was 33 nM.
For the compound `CC(C)Oc1ccc2[nH]nc(-c3ccnc(N4CC[C@H](O)C4)c3)c2c1` [Example 181], the IC50 worked out at 8.2 nM.
Take `CO[C@H]1CN(c2cc(-c3n[nH]c4ccc(OC(C)C)cc34)ccn2)C[C@@H]1O` [Example 172]: the IC50 came to 27.1 nM.
As for `c1ccc2c(c1)CN(c1cc(-c3n[nH]c4ccccc34)ccn1)C2` [Example 7], the IC50 amounted to 87 nM.
Take `CC1CN(c2cc(-c3n[nH]c4ccccc34)ccn2)CC(C)O1` (centres unmarked) [Example 31]: the IC50 was 12 nM.
Still for that read-out and setting: the value for `O=C1CCN(c2cc(-c3n[nH]c4ccccc34)ccn2)CCN1` [Example 72] was 57 nM; that for `c1cc(-c2n[nH]c3ccc(CNC4CCCNC4)cc23)cc(N2CCOCC2)n1` (centres unmarked) [Example 96] was 110 nM.
The same measure, in the same setting: the value for `CN1CCN(c2cc(-c3n[nH]c4ccccc34)ccn2)CC1=O` [Example 46] was 21 nM.
Still for that read-out and setting: in the case of `c1ccc2c(-c3ccnc(N4CCCCC4)c3)n[nH]c2c1` [Example 6] it was 16 nM; in that of `F[C@H]1COC[C@@H]1Nc1cc(-c2n[nH]c3ccccc23)ccn1` [Example 38], 79 nM; in that of `c1ccc2c(-c3ccnc(N4CCC5(CC4)OCCO5)c3)n[nH]c2c1` [Example 15, 8-[4-(1H-indazol-3-yl)pyridin-2-yl]-1,4-dioxa-8-azaspiro[4.5]decane], 36 nM.
In the case of `c1cc(-c2n[nH]c3ccc(OCCN4CCOCC4)cc23)cc(N2CCOCC2)n1` [Example 82], the IC50 was determined as 4.7 nM.
As to `CN(C)CC1CN(c2cc(-c3n[nH]c4ccccc34)ccn2)CCO1` (centres unmarked) [Example 43], the IC50 was determined as 19 nM.
For `COCCNc1cc(-c2n[nH]c3ccccc23)ccn1` [Example 4], the IC50 was determined as 46 nM.
Same read-out and setting: the value for `CC(C)Oc1ccc2[nH]nc(-c3ccnc(N4CCC(n5cccn5)CC4)c3)c2c1` [Example 173] was 4.9 nM; that for `F[C@@H]1CCN(c2cc(-c3n[nH]c4ccc(OC(F)(F)F)cc34)ccn2)C1` [Example 240] was 206 nM.
On the same count and under the same terms, the value for `CN(C)CCC(Nc1cc(-c2n[nH]c3ccccc23)ccn1)c1ccccn1` (centres unmarked) [Example 45] was 72 nM.
Same read-out and setting: in the case of `c1ccc2c(-c3ccnc(NC4COC4)c3)n[nH]c2c1` [Example 33] it was 3510 nM; in that of `OCC1CN(c2cc(-c3n[nH]c4ccccc34)ccn2)CCCO1` (centres unmarked) [Example 37], 64 nM.

The assay is the same for the next values; noted with them: Km ATP LanthaScreen; mean IC50 of several tests; read-out: LRRK2 IC50.
Regarding `OCCc1ccc2[nH]nc(-c3ccnc(N4CCOCC4)c3)c2c1` [Example 333], the IC50 is 30 nM.
On the same count and under the same terms, the value for `c1cncc(-c2ccc3[nH]nc(-c4ccnc(N5CCOCC5)c4)c3c2)c1` [Example 98] was 3.4 nM; that for `Cn1cc(-c2ccc3[nH]nc(-c4ccnc(N5CCOC6(CC6)C5)c4)c3c2)cn1` [Example 379] was 4.2 nM; that for `c1cc(-c2n[nH]c3ccc(-c4cn[nH]c4)cc23)cc(N2CCOCC2)n1` [Example 344] was < 0.6 nM.
The same measure, in the same setting: in the case of `COCCOc1ccc2[nH]nc(-c3ccnc(N4CCN(C)C(=O)C4)c3)c2c1` [Example 368] it was 30 nM.
Still for that read-out and setting: the value for `Oc1ccc2[nH]nc(-c3ccnc(N4CCOCC4)c3)c2c1` [Example 78] was 5.3 nM.
Regarding `COc1ncnc(C)c1-c1ccc2[nH]nc(-c3ccnc(N4CCOCC4)c3)c2c1` [Ex 331], the IC50 was determined as 59 nM.
Still for that read-out and setting: the value for `CC(C)Oc1ccc2[nH]nc(-c3ccnc(NS(=O)(=O)C4CC4)c3)c2c1` [Example 259] was 63.2 nM.
On the same count and under the same terms, in the case of `Brc1ccc2c(-c3ccnc(N4CCOCC4)c3)n[nH]c2c1` [Example 103] it was 19 nM.
The same measure, in the same setting: in the case of `CC(C)Oc1ccc2[nH]nc(-c3ccnc(N4CCCC4=O)c3)c2c1` [Example 302] it was 24 nM.
For the compound `Cn1cc(-c2ccc3[nH]nc(-c4ccnc(N5CCCCC5)c4)c3c2)cn1` [Example 266], the IC50 stood at 2.4 nM.
As for `COc1ccnc(F)c1-c1ccc2[nH]nc(-c3ccnc(N4CCN(S(C)(=O)=O)CC4)c3)c2c1` [Example 366], the IC50 was < 0.6 nM.
Consider `OCc1cc2c(-c3ccnc(N4CCOCC4)c3)n[nH]c2cc1F` [Example 347], for which the IC50 was 38 nM.
On the same count and under the same terms, in the case of `c1cc(-c2ccc3[nH]nc(-c4ccnc(N5CCOCC5)c4)c3c2)ccn1` [Example 97] it was 13.7 nM.
Same read-out and setting: in the case of `Oc1ccc(-c2ccc3[nH]nc(-c4ccnc(N5CCOCC5)c4)c3c2)cn1` [Example 315] it was 39 nM; in that of `COc1cnc(-c2ccc3[nH]nc(-c4ccnc(N5CCOCC5)c4)c3c2)nc1` [Example 339], 22 nM.
The same measure, in the same setting: in the case of `c1cc(-c2n[nH]c3ccc(OCC4CC4)cc23)cc(N2CCOCC2)n1` [Example 373] it was 84 nM; in that of `COc1ccnc(Cl)c1-c1ccc2[nH]nc(-c3ccnc(N4CCOCC4)c3)c2c1` [Example 320], < 0.6 nM.
Consider `CC(C)(O)COc1ccc2[nH]nc(-c3ccnc(N4CCOCC4)c3)c2c1` [Example 348], for which the IC50 was found to be 14 nM.
Same read-out and setting: the value for `Cn1cc(-c2ccc3[nH]nc(-c4ccnc(N5CCN(c6nnc(C7CC7)o6)CC5)c4)c3c2)cn1` [Example 276] was 2.7 nM.
Same read-out and setting: the value for `CCOc1ccc2[nH]nc(-c3ccnc(N4CCN(C)CC4)c3)c2c1` [Example 362] was 10 nM; that for `FC1CN(c2cc(-c3n[nH]c4ccc(-c5cccnc5)cc34)ccn2)C1` [Example 306] was 2.9 nM; that for `CC(C)Oc1ccc2[nH]nc(-c3ccnc(N4CC5(COC5)C4)c3)c2c1` [Example 283] was 5.9 nM.
Same read-out and setting: the value for `Brc1ccc2[nH]nc(-c3ccnc(N4CCOCC4)c3)c2c1` [Example 77] was 11 nM.
`N#Cc1ccc2c(-c3ccnc(N4CCOCC4)c3)n[nH]c2c1` [Example 106]: the IC50 is 49 nM.
On to `CC(C)(O)Cc1ccc2[nH]nc(-c3ccnc(N4CCOCC4)c3)c2c1` [Example 332], for which the IC50 came to 93 nM.
`OCCOc1ccc2[nH]nc(-c3ccnc(N4CCOCC4)c3)c2c1` [Example 363]: the IC50 was 9.3 nM.
As to `c1cc(-c2n[nH]c3ccc(-c4cnco4)cc23)cc(N2CCOCC2)n1` [Example 322], the IC50 worked out at 0.66 nM.
The same measure, in the same setting: the value for `CC(C)Oc1ccc2[nH]nc(-c3ccnc(NS(C)(=O)=O)c3)c2c1` [Example 395] was 20 nM.
